The values below come from patent US20080200448A1, “New Pyridine Analogues VIII 518” (ASTRAZENECA AB, priority 2007, published 2008).

Molecules are shown by their SMILES.

For this assay, the target named is T1, P2Y12 receptor (Homo sapiens, UniProt Q9H244).
T1 construct: expressed in transfected cells; host or cells: CHO cells (membrane preparation)
T1 sequence (Q9H244 whole entry): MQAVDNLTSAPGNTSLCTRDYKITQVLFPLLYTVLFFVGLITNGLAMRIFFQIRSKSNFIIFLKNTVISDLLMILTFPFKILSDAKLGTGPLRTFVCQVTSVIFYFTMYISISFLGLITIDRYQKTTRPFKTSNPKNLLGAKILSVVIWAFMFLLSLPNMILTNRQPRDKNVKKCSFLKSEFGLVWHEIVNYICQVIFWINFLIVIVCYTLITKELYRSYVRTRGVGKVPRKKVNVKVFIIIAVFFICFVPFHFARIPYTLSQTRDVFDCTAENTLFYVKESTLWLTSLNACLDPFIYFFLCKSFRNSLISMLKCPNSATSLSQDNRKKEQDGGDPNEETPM
Kind of assay: Functional inhibition of 2-Me-S-ADP induced P2Y12 signalling (35S-GTPγS binding, cell membranes). Type of assay: biochemical. To be noted: 35S-GTPγS assay, membranes, EC80 concentration of 2-methyl-thio-adenosine diphosphate, 30° C. for 45 min; read-out: GTPγS (IC50 μM). The method, boiled down: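 Membranes (5 μg) from P2Y12-transfected CHO cells in pH 7.4 HEPES buffer with 10 μM GDP and saponin were stimulated with an EC80 of 2-methyl-thio-ADP plus compound and ^35S-GTPγS for 45 min at 30° C. Filter-retained ^35S-GTPγS was counted, normalised between agonist and no-agonist activity, and IC50 taken from a four-parameter fit.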
Background: GTPγS is a poorly hydrolysed GTP analogue; its binding reports G protein activation.
One may read the IC50 as the concentration that inhibits the measured activity by half. As for `CCOC(=O)c1cc(C#N)c(N2CCC(C(=O)NS(=O)(=O)Nc3ccc(F)cc3)CC2)nc1CN1CCCC1=O` [Example 77, Ethyl 5-cyano-6-[4-({[(4-fluorophenyl)amino]sulfonyl}carbamoyl)piperidin-1-yl]-2-[(2-oxopyrrolidin-1-yl)methyl]nicotinate], the IC50 is 0.017 µM.

As for `CC(C)OC(=O)c1cc(C#N)c(N2CCC(C(=O)NS(=O)(=O)N(C)c3ccccc3)CC2)nc1CN1CCCC1=O` [Example 78, Isopropyl 5-cyano-6-[4-({[methyl(phenyl)amino]sulfonyl}carbamoyl)piperidin-1-yl]-2-[(2-oxopyrrolidin-1-yl)methyl]nicotinate], the half-inhibitory concentration (IC50) came out at 0.021 µM.

Take `CC(C)OC(=O)c1cc(C#N)c(N2CCC(C(=O)NS(=O)(=O)N(C)c3ccc(F)cc3)CC2)nc1CN1CCCC1=O` [Example 79, Isopropyl 5-cyano-6-[4-({[(4-fluorophenyl)(methyl)amino]sulfonyl}carbamoyl)piperidin-1-yl]-2-[(2-oxopyrrolidin-1′-yl)methyl]nicotinate]: the IC50 turned out to be 0.014 µM.

On to `CC(C)OC(=O)c1cc(C#N)c(N2CCC(C(=O)NS(=O)(=O)Nc3ccc(F)cc3)CC2)nc1CN1CCCC1=O` [Example 80, Isopropyl 5-cyano-6-[4-({[(4-fluorophenyl)amino]sulfonyl}carbamoyl)piperidin-1-yl]-2-[(2-oxopyrrolidin-1-yl)methyl]nicotinate], for which the 50% inhibitory concentration (IC50) worked out at 0.038 µM.

Consider `CC(C)OC(=O)c1cc(C#N)c(N2CCC(C(=O)NS(=O)(=O)CC3CCC3)CC2)nc1CN1CCCC1=O` [Example 81, Isopropyl 5-cyano-6-(4-{[(cyclobutylmethyl)sulfonyl]carbamoyl}piperidin-1-yl)-2-[(2-oxopyrrolidin-1-yl)methyl]nicotinate], for which the concentration for half-maximal inhibition (IC50) turned out to be 0.094 µM.

With `CC(C)OC(=O)c1cc(C#N)c(N2CCC(C(=O)NS(=O)(=O)CC3CCCCC3)CC2)nc1CN1CCCC1=O` [Example 82, Isopropyl 5-cyano-6-(4-{[(cyclohexylmethyl)sulfonyl]carbamoyl}piperidin-1-yl)-2-[(2-oxopyrrolidin-1-yl)methyl]nicotinate], the IC50 is 0.028 µM.

For the compound `COc1ccc(CS(=O)(=O)NC(=O)C2CCN(c3nc(CN4CCCC4=O)c(C(=O)OC(C)C)cc3C#N)CC2)cc1` [Example 83, Isopropyl 5-cyano-6-(4-{[(4-methoxybenzyl)sulfonyl]carbamoyl}piperidin-1-yl)-2-[(2-oxopyrrolidin-1-yl)methyl]nicotinate], the half-maximal inhibitory concentration (IC50) stood at 0.016 µM.

Turning to `CCOC(=O)c1cc(Br)c(N2CCC(C(=O)NS(=O)(=O)Cc3ccccc3)CC2)nc1CN1CCCC1=O` [Example 84, Ethyl 6-{4-[(benzylsulfonyl)carbamoyl]piperidin-1-yl}-5-bromo-2-[(2-oxopyrrolidin-1-yl)methyl]nicotinate], the IC50 was 0.031 µM.

Consider `CCOC(=O)c1cc(Cl)c(N2CCC(C(=O)NS(=O)(=O)Cc3ccccc3)CC2)nc1CN1CCCC1=O` [Example 85, Ethyl 6-{4-[(benzylsulfonyl)carbamoyl]piperidin-1-yl}-5-chloro-2-[(2-oxopyrrolidin-1-yl)methyl]nicotinate], for which the IC50 came to 0.041 µM.

Take `CCOC(=O)c1ccc(N2CCC(C(=O)NS(=O)(=O)Cc3ccccc3)CC2)nc1CN1CCCC1=O` [Example 86, Ethyl 6-{4-[(benzylsulfonyl)carbamoyl]piperidin-1-yl}-2-[(2-oxopyrrolidin-1-yl)methyl]nicotinate]: the IC50 was 0.103 µM.

With `CCOC(=O)c1cc(Cl)c(N2CCC(C(=O)NS(=O)(=O)Cc3ccc(C)cc3)CC2)nc1CN1CCCC1=O` [Example 87, Ethyl 5-chloro-6-(4-{[(4-methylbenzyl)sulfonyl]carbamoyl}piperidin-1-yl)-2-[(2-oxopyrrolidin-1-yl)methyl]nicotinate], the IC50 was found to be 0.037 µM.

As for `CCOC(=O)c1cc(Cl)c(N2CCC(C(=O)NS(=O)(=O)Cc3ccc(OC)cc3)CC2)nc1CN1CCCC1=O` [Example 88, Ethyl 5-chloro-6-(4-{[(4-methoxybenzyl)sulfonyl]carbamoyl}piperidin-1-yl)-2-[(2-oxopyrrolidin-1-yl)methyl]nicotinate], the IC50 turned out to be 0.081 µM.

On to `CCOC(=O)c1cc(Cl)c(N2CCC(C(=O)NS(=O)(=O)Cc3ccc(F)cc3F)CC2)nc1CN1CCCC1=O` [Example 89, Ethyl 5-chloro-6-(4-{[(2,4-difluorobenzyl)sulfonyl]carbamoyl}piperidin-1-yl)-2-[(2-oxopyrrolidin-1-yl)methyl]nicotinate], for which the half-inhibitory concentration (IC50) stood at 0.033 µM.

On to `CCOC(=O)c1cc(C#N)c(N2CC(C(=O)NS(=O)(=O)Cc3ccccc3)C2)nc1CN1CCCC1=O` [Example 90, Ethyl 6-{3-[(benzylsulfonyl)carbamoyl]azetidin-1-yl}-5-cyano-2-[(2-oxopyrrolidin-1-yl)methyl]nicotinate], for which the IC50 was determined as 0.019 µM.

Take `CCOC(=O)c1cc(Cl)c(N2CCC(C(=O)NS(=O)(=O)Nc3ccc(F)cc3)CC2)nc1CN1CCCC1=O` [Example 91, Ethyl 5-chloro-6-[4-({[(4-fluorophenyl)amino]sulfonyl}carbamoyl)piperidin-1-yl]-2-[(2-oxopyrrolidin-1-yl)methyl]nicotinate]: the IC50 was 0.145 µM.

Take `CCOC(=O)c1cc(Cl)c(N2CCC(C(=O)NS(=O)(=O)N(C)c3ccc(F)cc3)CC2)nc1CN1CCCC1=O` [Example 92, Ethyl 5-chloro-6-[4-({[(4-fluorophenyl)(methyl)amino]sulfonyl}carbamoyl)piperidin-1-yl]-2-[(2-oxopyrrolidin-1-yl)methyl]nicotinate]: the half-inhibitory concentration (IC50) was 0.077 µM.

Take `CCOC(=O)c1cc(Cl)c(N2CCC(C(=O)NS(=O)(=O)N(C)c3ccccc3)CC2)nc1CN1CCCC1=O` [Example 93, Ethyl 5-chloro-6-[4-({[methyl(phenyl)amino]sulfonyl}carbamoyl)piperidin-1-yl]-2-[(2-oxopyrrolidin-1-yl)methyl]nicotinate]: the IC50 worked out at 0.062 µM.

Take `CCOC(=O)c1cc(Cl)c(N2CCC(C(=O)NS(=O)(=O)CC3CCCCC3)CC2)nc1CN1CCCC1=O` [Example 94, Ethyl 5-chloro-6-(4-{[(cyclohexylmethyl)sulfonyl]carbamoyl}piperidin-1-yl)-2-[(2-oxopyrrolidin-1-yl)methyl]nicotinate]: the 50% inhibitory concentration (IC50) was found to be 0.194 µM.

With `CCCOC(=O)c1cc(Cl)c(N2CCC(C(=O)NS(=O)(=O)N(C)c3ccc(F)cc3)CC2)nc1CN1CCCC1=O` [Example 95, Propyl 5-chloro-6-[4-({[(4-fluorophenyl)(methyl)amino]sulfonyl}carbamoyl)piperidin-1-yl]-2-[(2-oxopyrrolidin-1-yl)methyl]nicotinate], the half-inhibitory concentration (IC50) is 0.155 µM.

Consider `CC(C)OC(=O)c1cc(Cl)c(N2CCC(C(=O)NS(=O)(=O)Cc3ccccc3)CC2)nc1CN1CCCC1=O` [Example 96, Isopropyl 6-{4-[(benzylsulfonyl)carbamoyl]piperidin-1-yl}-5-chloro-2-[(2-oxopyrrolidin-1-yl)methyl]nicotinate], for which the IC50 came out at 0.178 µM.

With `CCSC(=O)c1cc(C#N)c(N2CCC(C(=O)NS(=O)(=O)CC3CCCC3)CC2)nc1CN1CCCC1=O` [Example 97, S-Ethyl 5-cyano-6-(4-{[(cyclopentylmethyl)sulfonyl]carbamoyl}piperidin-1-yl)-2-[(2-oxopyrrolidin-1-yl)methyl]pyridine-3-carbothioate], the half-maximal inhibitory concentration (IC50) came to 1.22 µM.
